Reference: patent US11117915B2, “Antibacterial aminoglycoside analogs” (Cipla USA, Inc., priority 2007, dated 2021)
In brackets after ≈: the same amount, converted by molar mass. Like-named read-outs stand apart in the source and are kept apart here.

Experiments:
[1] = tested on: E. coli ATCC 25922; test: MIC assay, CLSI broth microdilution, E. coli ATCC 25922 (AECO001); assay type: cell-based; conditions: for MIC: Escherichia coli, read-out: MIC AECO001
Experimental: (§1) Minimum inhibitory concentrations (MIC) were determined by reference Clinical and Laboratory Standards Institute (CLSI) broth microdilution methods per M7-A7 [2006]. Quality control ranges utilizing E. coli ATCC 25922, P. aeruginosa ATCC 27853 and S. aureus ATCC 29213, and interpretive criteria for comparator agents were as published in CLSI M100-S17 [2007]. Briefly, serial two-fold dilutions of the test compounds were prepared at 2× concentration in Mueller Hinton Broth. The compound dilutions were mixed in 96-well assay plates in a 1:1 ratio with bacterial inoculum. The inoculum was prepared by suspension of a colony from an agar plate that was prepared the previous day. Bacteria were suspended in sterile saline and added to each assay plate to obtain a final concentration of 5×10^5 CFU/mL. The plates were incubated at 35° C. for 20 hours in ambient air.
These MIC assays were conducted following the same protocol as set forth in Example 110. As shown, substituted sisomicin derivatives with groups other than methyl at the 6′-position have improved activity against strains expressing the AAC6′-modifying enzymes.

[2] = tested on: P. aeruginosa ATCC 27853; test: MIC assay, CLSI broth microdilution, P. aeruginosa ATCC 27853 (APAE001); assay type: cell-based; conditions: Pseudomonas aeruginosa, read-out: MIC APAE001
Experimental: as §1

[3] = AECO001 is ATCC25922, 35° C., 20 hours
[4] = APAE001 is ATCC27853, 35° C., 20 hours

Row | Compound | MIC ([1]; ATCC25922, 20 h) [µg/mL] | MIC ([2]; ATCC27853, 20 h) [µg/mL] | MIC [1, 3] [µg/mL] | MIC [2, 4] [µg/mL] | MIC AECO001 ([1]; Table 3, E. coli ATCC25922) [µg/mL]
1 | CN[C@@H]1[C@@H](O)[C@@H](O[C@@H]2[C@@H](O)[C@H](O[C@H]3OC(CNCCCN)=CC[C@H]3N)[C@@H](N)C[C@H]2NS(=O)(=O)CCN)OC[C@]1(C)O [Example 26, 6′-(3-Amino-propyl)-1-(2-amino-ethylsulfonamide)-sisomicin] | 1 to 16 (≈ 1.63 to 26.2 µM) | 1 to 16 (≈ 1.63 to 26.2 µM) | – | – | –
2 | CN[C@@H]1[C@@H](O)[C@@H](O[C@@H]2[C@@H](O)[C@H](O[C@H]3OC(CNCC(O)CO)=CC[C@H]3N)[C@@H](N)C[C@H]2NS(=O)(=O)CCN)OC[C@]1(C)O (stereo partly drawn) [Example 27, 6′-(2-Hydroxy-propanol)-1-(2-amino-ethylsulfonamide)-sisomicin] | 1 to 16 (≈ 1.59 to 25.4 µM) | > 16 | – | – | –
3 | CN[C@@H]1[C@@H](O)[C@@H](O[C@@H]2[C@@H](O)[C@H](O[C@H]3OC(CNC[C@H](O)CO)=CC[C@H]3N)[C@@H](N)C[C@H]2NC(=O)[C@@H](O)CCN)OC[C@]1(C)O [Example 28, 6′-(2(S)-Hydroxy-propanol)-1-(4-amino-2(S)-hydroxy-butyryl)-sisomicin] | 1 to 16 (≈ 1.61 to 25.7 µM) | 1 to 16 (≈ 1.61 to 25.7 µM) | – | – | –
4 | CN[C@@H]1[C@@H](O)[C@@H](O[C@@H]2[C@@H](O)[C@H](O[C@H]3OC(CNCCO)=CC[C@H]3N)[C@@H](N)C[C@H]2NS(=O)(=O)CCN)OC[C@]1(C)O [Example 29, 6′-(2-Hydroxy-ethyl)-1-(2-amino-ethylsulfonamide)-sisomicin] | 1 to 16 (≈ 1.67 to 26.7 µM) | > 16 | – | – | –
5 | CN[C@@H]1[C@@H](O)[C@@H](O[C@@H]2[C@@H](O)[C@H](O[C@H]3OC(CNCC(N)CO)=CC[C@H]3N)[C@@H](N)C[C@H]2NC(=O)[C@@H](O)CCN)OC[C@]1(C)O (stereo partly drawn) [Example 30, 6′-(2-Amino-propanol)-1-(4-amino-2(S)-hydroxy-butyryl)-sisomicin] | < 1 | 1 to 16 (≈ 1.61 to 25.7 µM) | – | – | –
6 | CN[C@@H]1[C@@H](O)[C@@H](O[C@@H]2[C@@H](O)[C@H](O[C@H]3OC(CNCC4(O)CCNCC4)=CC[C@H]3N)[C@@H](N)C[C@H]2NC(=O)[C@@H](O)CCN)OC[C@]1(C)O [Example 31] | 1 to 16 (≈ 1.51 to 24.2 µM) | 1 to 16 (≈ 1.51 to 24.2 µM) | – | – | –
7 | CN[C@@H]1[C@@H](O)[C@@H](O[C@@H]2[C@@H](O)[C@H](O[C@H]3OC(CNCC(O)CCCN)=CC[C@H]3N)[C@@H](N)C[C@H]2NC(=O)[C@@H](O)CCN)OC[C@]1(C)O (stereo partly drawn) [Example 32, 6′-(2-Hydroxy-5-amino-pentyl)-1-(4-amino-2(S)-hydroxy-butyryl)-sisomicin] | < 1 | 1 to 16 (≈ 1.54 to 24.6 µM) | – | – | –
8 | CN[C@@H]1[C@@H](O)[C@@H](O[C@@H]2[C@@H](O)[C@H](O[C@H]3OC(CNC[C@H]4C[C@H](N)C4)=CC[C@H]3N)[C@@H](N)C[C@H]2NC(=O)[C@@H](O)CCN)OC[C@]1(C)O [Example 33, 6′-(Methyl-trans-3-amino-cyclobutyl)-1-(4-amino-2(S)-hydroxy-butyryl)-sisomicin] | < 1 | 1 to 16 (≈ 1.58 to 25.3 µM) | – | – | –
9 | CN[C@@H]1[C@@H](O)[C@@H](O[C@@H]2[C@@H](O)[C@H](O[C@H]3OC(CNCC(O)CCN)=CC[C@H]3N)[C@@H](N)C[C@H]2NC(=O)C2(O)CCNC2)OC[C@]1(C)O (stereo partly drawn) [Example 35] | < 1 | 1 to 16 (≈ 1.54 to 24.7 µM) | – | – | –
10 | CN[C@@H]1[C@@H](O)[C@@H](O[C@@H]2[C@@H](O)[C@H](O[C@H]3OC(CNCCO)=CC[C@H]3N)[C@@H](N)C[C@H]2NC(=O)C2(O)CNC2)OC[C@]1(C)O [Example 37] | < 1 | 1 to 16 (≈ 1.69 to 27.1 µM) | – | – | –
11 | CN[C@@H]1[C@@H](O)[C@@H](O[C@@H]2[C@@H](O)[C@H](O[C@H]3OC(CNCCN)=CC[C@H]3N)[C@@H](N)C[C@H]2NC(=O)[C@@H](O)CCN)OC[C@]1(C)O [Example 38, 6′-(2-Amino-ethyl)-1-(4-amino-2(S)-hydroxy-butyryl)-sisomicin] | < 1 | 1 to 16 (≈ 1.69 to 27 µM) | – | – | –
12 | CN[C@@H]1[C@@H](O)[C@@H](O[C@@H]2[C@@H](O)[C@H](O[C@H]3OC(CNCC4(O)CC(CN)C4)=CC[C@H]3N)[C@@H](N)C[C@H]2NC(=O)[C@@H](O)CCN)OC[C@]1(C)O (stereo partly drawn) [Example 39] | – | – | < 1 | 1 to 16 (≈ 1.51 to 24.2 µM) | –
13 | CN[C@@H]1[C@@H](O)[C@@H](O[C@@H]2[C@@H](O)[C@H](O[C@H]3OC(CNCCCN)=CC[C@H]3N)[C@@H](N)C[C@H]2NC(=O)C2(O)CCNC2)OC[C@]1(C)O (stereo partly drawn) [Example 40] | 1 to 16 (≈ 1.62 to 25.9 µM) | 1 to 16 (≈ 1.62 to 25.9 µM) | – | – | –
14 | CN[C@@H]1[C@@H](O)[C@@H](O[C@@H]2[C@@H](O)[C@H](O[C@H]3OC(CNCC4CC4)=CC[C@H]3N)[C@@H](N)C[C@H]2NC(=O)C2(O)CCNC2)OC[C@]1(C)O (stereo partly drawn) [Example 41] | < 1 | 1 to 16 (≈ 1.63 to 26 µM) | – | – | –
15 | CN[C@@H]1[C@@H](O)[C@@H](O[C@@H]2[C@@H](O)[C@H](O[C@H]3OC(CNCC(O)CN)=CC[C@H]3N)[C@@H](N)C[C@H]2NC(=O)C2(O)CCNC2)OC[C@]1(C)O (stereo partly drawn) [Example 42, 6′-(2-Hydroxy-3-amino-propyl)-1-(3-hydroxy-pyrrolidin-3-yl-acetyl)-sisomicin] | 1 to 16 (≈ 1.58 to 25.2 µM) | 1 to 16 (≈ 1.58 to 25.2 µM) | – | – | –
16 | CN[C@@H]1[C@@H](O)[C@@H](O[C@@H]2[C@@H](O)[C@H](O[C@H]3OC(CNCCCCN)=CC[C@H]3N)[C@@H](N)C[C@H]2NC(=O)[C@@H](O)CCN)OC[C@]1(C)O [Example 43, 6′-(4-Amino-butyl)-1-(4-amino-2(S)-hydroxy-butyryl)-sisomicin] | < 1 | < 1 | – | – | –
17 | CN[C@@H]1[C@@H](O)[C@@H](O[C@@H]2[C@@H](O)[C@H](O[C@H]3OC(CNCCCCCN)=CC[C@H]3N)[C@@H](N)C[C@H]2NC(=O)[C@@H](O)CCN)OC[C@]1(C)O [Example 44, 6′-(5-Amino-pentyl)-1-(4-amino-2(S)-hydroxy-butyryl)-sisomicin] | < 1 | 1 to 16 (≈ 1.58 to 25.2 µM) | – | – | –
18 | CN[C@@H]1[C@@H](O)[C@@H](O[C@@H]2[C@@H](O)[C@H](O[C@H]3OC(CNCC4(O)CC(N)C4)=CC[C@H]3N)[C@@H](N)C[C@H]2NC(=O)[C@@H](O)CCN)OC[C@]1(C)O (stereo partly drawn) [Example 46] | < 1 | 1 to 16 (≈ 1.54 to 24.7 µM) | – | – | –
19 | CN[C@@H]1[C@@H](O)[C@@H](O[C@@H]2[C@@H](O)[C@H](O[C@H]3OC(CNCC4(O)CC(N)C4)=CC[C@H]3N)[C@@H](N)C[C@H]2NC(=O)C2(O)CNC2)OC[C@]1(C)O (stereo partly drawn) [Example 47] | 1 to 16 (≈ 1.55 to 24.8 µM) | 1 to 16 (≈ 1.55 to 24.8 µM) | – | – | –
20 | CN[C@@H]1[C@@H](O)[C@@H](O[C@@H]2[C@@H](O)[C@H](O[C@H]3OC(CNCCCN)=CC[C@H]3N)[C@@H](N)C[C@H]2NC(=O)[C@@H](O)CCN)OC[C@]1(C)O [Example 48, 6′-(3-Amino-propyl)-1-(4-amino-2(S)-hydroxy-butyryl)-sisomicin] | – | – | < 1 | 1 to 16 (≈ 1.65 to 26.4 µM) | 1 (≈ 1.65 µM)
21 | CN[C@@H]1[C@@H](O)[C@@H](O[C@@H]2[C@@H](O)[C@H](O[C@H]3OC(CNCC4CCCN4)=CC[C@H]3N)[C@@H](N)C[C@H]2NC(=O)[C@@H](O)CCN)OC[C@]1(C)O (stereo partly drawn) [Example 49, 6′-(Methyl-pyrrolidin-2-yl)-1-(4-amino-2(S)-hydroxy-butyryl)-sisomicin] | < 1 | 1 to 16 (≈ 1.58 to 25.3 µM) | – | – | –
22 | CN[C@@H]1[C@@H](O)[C@@H](O[C@@H]2[C@@H](O)[C@H](O[C@H]3OC(CNC[C@H](O)C(=O)O)=CC[C@H]3N)[C@@H](N)C[C@H]2NC(=O)[C@@H](O)CCN)OC[C@]1(C)O [Example 50, 6′-(2(S)-Hydroxy-3-propanoic)-1-(4-amino-2(S)-hydroxy-butyryl)-sisomicin] | > 16 | > 16 | – | – | –
